Assay results taken from patent publication US5763198A, “Screening assays for compounds” (Sugen, Inc., priority 1994, dated 1998).
Like-named read-outs stand apart in the source and are kept apart here.

Target: T1, EGF-R (Homo sapiens, UniProt P00533)
T1 construct: another EGFR over-expressing human epidermoid carcinoma cell line, A431 (ATCC CRL 1555); endogenous in cells; host or cells: A431 (ATCC CRL 1555)
Assay: Cell-free screening assay for EGF-R kinase activity (EGFR immobilized from A431 lysate)
Type: biochemical
Conditions: read-out: IC50, EGF-R kinase activity in a cell free system
Procedure: This assay provides a method for measuring the effects of test substances on the kinase activity of specific targets in a cell-free system. The target substrate is isolated from cell lysates by immobilization in microtiter plate wells coated with anti-substrate antibody. Following addition of the test substance, ATP and a bivalent cation are added to the wells to initiate the kinase-reaction. Concentrations of ATP can be varied to assess whether a test compound competes for ATP or substrate interaction. […] Phosphorylation of tyrosine residues on the immobilized target is then detected using antiphosphotyrosine antiserum.
The materials and reagents used are described in Section 6.1 with the exception that the cells used to prepare the cell lysate were another EGFR over-expressing human epidermoid carcinoma cell line, A431 (ATCC CRL 1555). Test substances were obtained from LC Service Corp (Woburn, Mass.).
Preparation of the assay plates was performed as described in Section 6.2.1.
Cells (A431) were grown to 80-90% confluency in DMEM (Gibco) plus 10% calf serum then washed twice with PBS. HNTG was added and the dish place on ice for five minutes. […] The cleared lysate can be stored at -80 C until used.
Seven μg of cell lysate was added to each well of a prepared assay plate plus PBS to make a final volume of 150 μl. […] The plate was incubated for 30 minutes, shaking, at room temperature.
The kinase reaction was initiated by the addition of 15 μl of ATP/Mn mix (in 50 mM MnCL2, final concentration of ATP 1 μM, 3 μM or 10 μM) for a total volume of […]. The plate was incubated for 5 minutes at room temperature, shaking, then washed 5 times with TBST. The amount of phosphorylation present was measured as described in Section 6.2.3.

T1 sequence (P00533 25-1210): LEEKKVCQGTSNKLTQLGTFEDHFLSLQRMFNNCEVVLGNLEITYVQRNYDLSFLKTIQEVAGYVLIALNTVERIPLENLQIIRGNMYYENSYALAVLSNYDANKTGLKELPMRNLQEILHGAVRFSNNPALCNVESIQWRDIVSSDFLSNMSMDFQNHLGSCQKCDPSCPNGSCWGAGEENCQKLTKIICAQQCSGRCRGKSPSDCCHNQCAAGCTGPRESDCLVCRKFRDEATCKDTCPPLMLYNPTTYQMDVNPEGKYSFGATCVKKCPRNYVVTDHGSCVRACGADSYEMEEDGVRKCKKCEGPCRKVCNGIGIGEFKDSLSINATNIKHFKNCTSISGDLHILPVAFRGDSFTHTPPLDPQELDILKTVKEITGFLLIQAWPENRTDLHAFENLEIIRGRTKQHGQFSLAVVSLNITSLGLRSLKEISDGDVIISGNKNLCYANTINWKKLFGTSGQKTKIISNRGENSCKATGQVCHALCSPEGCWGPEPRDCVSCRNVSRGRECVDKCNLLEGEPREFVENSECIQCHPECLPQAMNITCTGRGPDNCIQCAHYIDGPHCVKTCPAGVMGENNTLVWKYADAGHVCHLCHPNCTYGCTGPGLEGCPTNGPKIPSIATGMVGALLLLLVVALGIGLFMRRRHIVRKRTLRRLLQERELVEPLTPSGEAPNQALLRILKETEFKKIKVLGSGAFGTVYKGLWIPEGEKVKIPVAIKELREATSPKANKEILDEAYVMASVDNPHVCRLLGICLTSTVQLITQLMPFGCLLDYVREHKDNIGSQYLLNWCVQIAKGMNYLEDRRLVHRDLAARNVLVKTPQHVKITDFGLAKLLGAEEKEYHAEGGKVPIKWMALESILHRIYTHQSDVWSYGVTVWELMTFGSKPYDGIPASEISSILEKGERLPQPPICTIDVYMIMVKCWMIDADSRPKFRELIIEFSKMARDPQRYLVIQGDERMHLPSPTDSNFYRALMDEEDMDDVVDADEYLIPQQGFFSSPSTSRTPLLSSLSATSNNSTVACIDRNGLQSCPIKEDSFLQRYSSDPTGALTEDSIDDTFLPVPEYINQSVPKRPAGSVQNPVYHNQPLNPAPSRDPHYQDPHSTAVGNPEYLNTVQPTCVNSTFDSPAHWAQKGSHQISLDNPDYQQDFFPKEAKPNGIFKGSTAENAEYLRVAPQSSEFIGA

IC50 (ATP conc. 3 μM) [nM]	IC50 (ATP conc. 10 μM) [nM]	SMILES	IC50 (ATP conc. 1 μM) [nM]
–	–	COC1C=CC=C(C)C(=O)NC2=CC(=O)C=C(C2=O)C(OC)C(C)CC(OC)C(OC)C(C)C=C(C)C1OC(N)=O (stereo not shown) [Herbimycin A]	> 100000
100	55000	O=C(O)c1cc(N(Cc2ccccc2O)Cc2cc(O)ccc2O)ccc1O [Lavendustin A]	80
